Source: PubChem BioAssay (NCI)
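Briefly, cells in 96-well plates were exposed to five compound concentrations for 48 h, and endpoints were estimated by linear interpolation. The concentration for full growth arrest is given as TGI.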

Assays:
Test in all cases: NCI tumour cell line growth inhibition, 48 h
[1] = test system: COLO 205 colon
[2] = test system: SF-268 CNS
[3] = test system: DU-145 prostate
[4] = test system: UO-31 renal
[5] = test system: HCC-2998 colon
[6] = test system: SNB-19 CNS
[7] = test system: UACC-257 melanoma
[8] = test system: SK-OV-3 ovarian
[9] = test system: PC-3 prostate
[10] = test system: NCI-H23 lung

Measured: TGI

O=C1C(=O)N(C23CC4CC(CC(C4)C2)C3)C(=S)N1c1ccccc1
> 100 µM: all assays above
